Experimental data reported in patent publication US20260207720A1, “COMPOSITIONS AND METHODS FOR TREATING FUNGAL INFECTIONS” (MUCPharm Pty Ltd, priority 2022, published 2026).

Key:
Assay type in all cases: cell-based
Mucor circinelloides = test: Susceptibility assay of antifungals with BromAc (Example 4); details: for Observed inhibitory effect: antifungal in combination with BromAc (5 mg/ml Acetylcysteine+12.5 μg/ml Bromelain) vs alone; for isolates with increased sensitivity: antifungal with BromAc
Experimental: (§1) The in vitro antifungal properties of Bromelain, Acetylcysteine, BromAc, Amphotericin B, Isavuconazole, Fluconazole and Posaconazole were determined using a broth microdilution method in round bottom 96 well plates in accordance with standard procedures defined by the Clinical Laboratory Standards Institute (CLSI).
(§2) Unless otherwise described, fungal cultures were grown on potato dextrose agar plates at 35° C. until mature (appearance of conidia) and used to prepare suspensions in sterile water. Suspensions were diluted in RPMI 1:60. These suspensions were then added in equal volume to solutions containing the candidate species described above and incubated at 35° C. for 24 hr. Plates were then analysed for fungal growth inhibition and MIC values determined.
(§3) BromAc (5 mg/ml Acetylcysteine+12.5 μg/ml Bromelain) was used in combination with Amphotericin B, Isavuconazole, Posaconazole and Fluconazole. The MIC values of these four antifungal agents against the fungus described below were calculated and compared with their corresponding MIC values in the presence of BromAc, using the standard susceptibility assays described above.
(§4) The fungal strains set out in Table 2, all of which were sourced from a range of clinical isolates from Australian hospitals, were used in these experiments to gain a further understanding of the efficacy of BromAc in combination with Amphotericin B, Isavuconazole, Posaconazole and Fluconazole.

Fusarium = test: as above; details: antifungal in combination with BromAc (5 mg/ml Acetylcysteine+12.5 μg/ml Bromelain) vs alone
Experimental: as §1, §2, §3, §4

Candida glabrata = test: as above; details: for Observed inhibitory effect: antifungal in combination with BromAc (5 mg/ml Acetylcysteine+12.5 μg/ml Bromelain) vs alone; for isolates with more than a 10× increase in sensitivity: antifungal with BromAc
Experimental: as §1, §2, §3, §4

Cunninghamella = test: as above; details: for Observed inhibitory effect: antifungal in combination with BromAc (5 mg/ml Acetylcysteine+12.5 μg/ml Bromelain) vs alone
Experimental: as §1, §2, §3, §4

Candida tropicalis = test: as above; details: for Observed inhibitory effect: antifungal in combination with BromAc (5 mg/ml Acetylcysteine+12.5 μg/ml Bromelain) vs alone; for isolates with more than a 10× increase in sensitivity: antifungal with BromAc
Experimental: as §1, §2, §3, §4

Licthemia = test: as above; details: antifungal in combination with BromAc (5 mg/ml Acetylcysteine+12.5 μg/ml Bromelain) vs alone
Experimental: as §1, §2, §3, §4

Candida auris = test: as above; details: for isolates with more than 10× increase: Candida auris, antifungal with BromAc; for Observed inhibitory effect: Candida aurus, antifungal in combination with BromAc (5 mg/ml Acetylcysteine+12.5 μg/ml Bromelain) vs alone
Experimental: as §1, §2, §3, §4

Candida parapslosis = test: as above; details: for increase in sensitivity: Candida parapsilosis, antifungal with BromAc; for Observed inhibitory effect: Candida parapslosis, antifungal in combination with BromAc (5 mg/ml Acetylcysteine+12.5 μg/ml Bromelain) vs alone
Experimental: as §1, §2, §3, §4

Aspergillus = test: as above; details: antifungal in combination with BromAc (5 mg/ml Acetylcysteine+12.5 μg/ml Bromelain) vs alone
Experimental: as §1, §2, §3, §4

Scedosporium = test: as above; details: antifungal in combination with BromAc (5 mg/ml Acetylcysteine+12.5 μg/ml Bromelain) vs alone
Experimental: as §1, §2, §3, §4

Candida kruseii = test: as above; details: antifungal in combination with BromAc (5 mg/ml Acetylcysteine+12.5 μg/ml Bromelain) vs alone
Experimental: as §1, §2, §3, §4

Lomentospora = test: as above; details: antifungal in combination with BromAc (5 mg/ml Acetylcysteine+12.5 μg/ml Bromelain) vs alone
Experimental: as §1, §2, §3, §4

Cryptococcus = test: as above; details: for Observed inhibitory effect: antifungal in combination with BromAc (5 mg/ml Acetylcysteine+12.5 μg/ml Bromelain) vs alone; for isolates with more than 10× increase: antifungal with BromAc
Experimental: as §1, §2, §3, §4

[1] = tested on: Candida Krusei (ATCC strain 6258); test: Broth dilution susceptibility test, MIC and percent growth (Example 6); details: for effect at lower doses / concentrations compared to GC (in words): below the MIC (Posaconazole 0.03 μg/ml)
Experimental: (§5) A. Preparation of inoculum: • 1. Candida glabrata was grown on Sabouraud dextrose agar (SDA) at 37° C. for 24-48 hrs. • 2. Following this, 5 colonies of 1 mm diameter were picked and suspended in 5 mL sterile saline (0.9% saline) and vortexed for 15 seconds. • 3. Working suspension is prepared as a 1:100 dilution from stock suspension with RPMI 1640 culture medium. • 4. The cell density is adjusted with a spectrophotometer to the transmittance produced by a 0.5 McFarland standard (0.08 to 0.1) OD at 625 nm wavelength.
(§6) • 1. For Bromelain, a stock concentration of 1 mg/ml Bromelain solution was prepared in RPMI media and diluted to test concentrations of 62.4, 31.2, 15.6 and 7.8 μg/ml in RPMI 1640 media. • 2. Acetylcysteine stock concentration is 200 mg/ml, diluted to 40, 20, 10, and 5 mg/ml concentrations in RPMI 1640 medium. • 3. These concentrations are prepared at 2× of the required concentrations in the final assay plate.
(§7) Antifungal stock concentrations are as follows— • 1. Amphotericin B, Stock concentration: 250 μg/ml in water. • 2. Posaconazole, Original concentration: 300 mg in 16.7 ml, Working stock concentration: 1 mg/ml in DMSO. • 3. Fluconazole, Original concentration: 100 mg in 50 ml, Working stock concentration: 1 mg/ml in DMSO. • 4. The final concentration was prepared in RPMI 1640 media and concentrations range was 0.01-0.5 μg/mL for amphotericin B, 0.01-2 μg/mL for posaconazole and 0.01-64 μg/mL for fluconazole. • 5. These concentrations were prepared at 2× of the required concentrations in the final assay plate.
(§8) • 1. Wells of the 96-well plates were inoculated with appropriate concentrations and volumes of drugs. • 2. Sterility control and growth controls are included in each plate. • 3. Each 96-well plate (except the control wells) contains 100 μL of double strength (twice the final antifungal drug) concentrations. • 4. 100 μL of the fungal suspension is added to 96-well plates (except the sterility control wells). • 5. The growth control wells contained 100 μL of sterile drug-free medium and 100 μL of inoculum suspension, while the sterility control wells contained 200 μl of sterile drug-free medium. • 6. Plates are then incubated at 37° C. and read at 625,430, and 530 nm wavelengths. • 7. Data from 24 hours and absorbance at 625 nm were used for analysis.
These experiments were conducted to determine the effect of BromAc alone and in combination with existing antifungal drugs against Candida Krusei (ATCC strain 6258).
The method used in these experiments is essentially the same as that described above in Example 5.

[2] = tested on: Candida glabrata (clinical isolate); test: Broth dilution susceptibility test, MIC and percent growth (Example 5); details: for MIC: 24 hours, 625 nm
Experimental: These experiments were conducted to determine the effect of BromAc alone and in combination with existing antifungal drugs against Candida glabrata (clinical isolate).
as §5, §6, §7, §8

SMILES | Observed inhibitory effect (Mucor circinelloides) | isolates with increased sensitivity (Mucor circinelloides) | Observed inhibitory effect (Fusarium) | Observed inhibitory effect (Candida glabrata) | isolates with more than a 10× increase in sensitivity (Candida glabrata) | Observed inhibitory effect (Cunninghamella) | Observed inhibitory effect (Candida tropicalis) | isolates with more than a 10× increase in sensitivity (Candida tropicalis) | Observed inhibitory effect (Licthemia) | isolates with more than 10× increase (Candida auris) | Observed inhibitory effect (Candida auris) | increase in sensitivity (Candida parapslosis) | Observed inhibitory effect (Candida parapslosis) | Observed inhibitory effect (Aspergillus) | Observed inhibitory effect (Scedosporium) | Observed inhibitory effect (Candida kruseii) | Observed inhibitory effect (Lomentospora) | Observed inhibitory effect (Cryptococcus) | isolates with more than 10× increase (Cryptococcus) | effect at lower doses / concentrations compared to GC (in words) [1] | other results
C[C@@H]1[C@H](O)[C@@H](C)/C=C/C=C/C=C/C=C/C=C/C=C/C=C/[C@H](O[C@@H]2O[C@H](C)[C@@H](O)[C@H](N)[C@@H]2O)C[C@@H]2O[C@](O)(C[C@@H](O)C[C@@H](O)[C@H](O)CC[C@@H](O)C[C@@H](O)CC(=O)O[C@H]1C)C[C@H](O)[C@H]2C(=O)O [Amphotericin B] | Strong (Strong = 5-10x (or greater) inhibitory effect) | 2 of 2 | No effect | Strong (Strong = 5-10x (or greater) inhibitory effect) | 5 of 5 | Possible | Strong (Strong = 5-10x (or greater) inhibitory effect) | 4 of 5 | Moderate (Moderate = 1-5x inhibitory effect) | 2 of 5 | Moderate (Moderate = 1-5x inhibitory effect) | ~10 × | Strong (Strong = 5-10x (or greater) inhibitory effect) | No effect | No effect | Strong (Strong = 5-10x (or greater) inhibitory effect) | No effect | Strong (Strong = 5-10x (or greater) inhibitory effect) | 5 of 5 | significant inhibition | MIC ([1]; Pichia kudriavzevii, ATCC6258, close to 90% inhibition): 1 µg/mL; MIC ([2]; Nakaseomyces glabratus, measured at 90% growth inhibition): 1 µg/mL
CC[C@@H]([C@H](C)O)n1ncn(-c2ccc(N3CCN(c4ccc(OC[C@@H]5CO[C@@](Cn6cncn6)(c6ccc(F)cc6F)C5)cc4)CC3)cc2)c1=O [Posaconazole] | Strong (Strong = 5-10x (or greater) inhibitory effect) | 1 of 2 | No effect | Strong (Strong = 5-10x (or greater) inhibitory effect) | 5 of 5 | Moderate (Moderate = 1-5x inhibitory effect) | Strong (Strong = 5-10x (or greater) inhibitory effect) | 4 of 5 | Moderate (Moderate = 1-5x inhibitory effect) | 4 of 5 | Strong (Strong = 5-10x (or greater) inhibitory effect) | more than 10 × | Strong (Strong = 5-10x (or greater) inhibitory effect) | Moderate (Moderate = 1-5x inhibitory effect) | Possible | Strong (Strong = 5-10x (or greater) inhibitory effect) | No effect | Strong (Strong = 5-10x (or greater) inhibitory effect) | 5 of 5 | no significant inhibition | interaction with BromAc (in words) (Cunninghamella; antifungal with BromAc): some synergy; MIC ([1]; Pichia kudriavzevii, ATCC6258, FIG. 10): 1 µg/mL; inhibition at 1 µg/mL ([1]; Pichia kudriavzevii, ATCC6258, Posaconazole 1 ug/ml, Fluconazole 32 μg/ml, read-out: activity (growth inhibition) at its MIC): > 50%; MIC ([2]; Nakaseomyces glabratus, 50% growth inhibition): 2 µg/mL; inhibition at 2 µg/mL ([2]; Nakaseomyces glabratus, at 2 μg/ml, read-out: decline in C. glabrata viability over the growth control): 25%; effect on C. glabrata viability / growth (in words) ([2]; at the concentrations tested, FIGS. 3-7): weaker antifungal effect; effect at lower concentration compared to growth control (in words) ([2]; concentrations lower than the MIC): slight decline
